Source: article PMC6355318 (Bioorganic & Medicinal Chemistry Letters, 2019)
In brackets after ≈: the same amount, converted by molar mass.

Tests used:
PfPKG = PfPKG (Plasmodium falciparum, UniProt Q8I719); test: biochemical; assay type: biochemical; details: for IC50: recombinant kinase, read-out: PfPKG pIC50 (converted); for LLE: LLE (pIC50 - mLogD)
P. falciparum = test: blood stage hypoxanthine incorporation (HXI) cell-based assay; details: Plasmodium falciparum, read-out: Pf HXI pEC50 (converted)
Source text: [23] For full details on both biochemical assay and anti-malarial hypoxanthine incorporation (cell based) assay procedures, see reference 14.

[1] = Measured logD (shake flask); assay type: physicochemical; details: octanol/PBS
Procedure: LogD measurements were carried out using the shake flask method. […] The ratios of areas of the peaks were used to calculate the LogD in accordance with the equation:
LogD = Log10(Area-TL/Area BL)

[2] = % remaining after 30 mins, mouse liver microsomes, 1 μM
[3] = passive permeability, 5 hours at room temperature
Kinetic solubility = assay type: physicochemical; details: PBS pH 7.4 with 2% DMSO, PBS pH7.4, 98:2 PBS:DMSO, 90 minutes, target 200 μM

Chain of PfPKG (Q8I719 whole entry): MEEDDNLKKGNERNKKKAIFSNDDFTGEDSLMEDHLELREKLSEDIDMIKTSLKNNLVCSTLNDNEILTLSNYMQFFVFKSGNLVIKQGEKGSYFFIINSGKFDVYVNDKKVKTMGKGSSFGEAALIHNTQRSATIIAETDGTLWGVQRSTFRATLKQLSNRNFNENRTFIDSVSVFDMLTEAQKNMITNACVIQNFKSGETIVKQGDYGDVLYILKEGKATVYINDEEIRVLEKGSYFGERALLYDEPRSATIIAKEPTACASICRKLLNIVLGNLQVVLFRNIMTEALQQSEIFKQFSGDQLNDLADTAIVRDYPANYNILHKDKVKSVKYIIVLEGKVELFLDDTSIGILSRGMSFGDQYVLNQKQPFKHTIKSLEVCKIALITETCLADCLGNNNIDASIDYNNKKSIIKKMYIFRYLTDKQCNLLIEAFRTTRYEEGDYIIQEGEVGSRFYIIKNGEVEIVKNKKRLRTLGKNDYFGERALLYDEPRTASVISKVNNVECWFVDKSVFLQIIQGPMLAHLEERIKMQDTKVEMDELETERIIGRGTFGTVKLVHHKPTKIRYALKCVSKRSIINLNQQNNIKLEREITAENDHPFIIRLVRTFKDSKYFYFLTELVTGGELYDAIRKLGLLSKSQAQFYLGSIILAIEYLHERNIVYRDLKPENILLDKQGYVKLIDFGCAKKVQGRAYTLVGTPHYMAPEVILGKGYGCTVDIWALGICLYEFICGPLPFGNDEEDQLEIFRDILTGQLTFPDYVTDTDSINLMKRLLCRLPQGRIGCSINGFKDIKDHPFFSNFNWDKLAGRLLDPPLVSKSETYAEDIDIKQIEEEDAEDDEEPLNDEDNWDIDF

SMILES | IC50 (PfPKG) [nM] | LLE (PfPKG) | fold less biochemically active (PfPKG; compared to 2) [fold] | EC50 (P. falciparum) [nM] | mLogD [1] | MLM % rem [2] [%] | PAMPA [3] [×10⁻⁶ cm/s] | solubility kinetic at 1.5 h, 200 µM (Kinetic solubility) [µM]
CN(C)Cc1ccn2c(-c3ccnc(N)n3)c(-c3ccc(F)cc3)nc2c1 [Compound 2, reference compound] | 2 |  |  | 363 |  |  |  | 
CN(C)Cc1ccn2c(-c3cc(N)ncn3)c(-c3ccc(F)cc3)nc2c1 [Compound 5] | 87.1 | 4.7 |  |  |  |  |  | 
CN1CCN(c2ccc(Nc3nccc(-c4c(-c5ccc(F)cc5)nc5ccccn45)n3)cc2)CC1 [Compound 16] |  |  |  | 115 | 4.0 | 65 | 0 | 9 (≈ 4.32 µg/mL)
CN1CCC(c2ccc(Nc3nccc(-c4c(-c5ccc(F)cc5)nc5ccccn45)n3)cc2)CC1 [Compound 17] | 5.01 |  |  | 158 | 3.3 | 55 | 0 | 
CN1CCC(n2cc(Nc3nccc(-c4c(-c5ccc(F)cc5)nc5ccccn45)n3)cn2)CC1 [Compound 18] | 100 |  |  | 575 | 2.7 | 37 | 12.4 | 237 (≈ 111 µg/mL)
CN(C)Cc1cc2nc(-c3ccc(F)cc3)c(-c3ccnc(N)n3)n2cn1 [Compound 19] | 55 |  |  | 3720 | 2.1 | 59 | 5.8 | 
CN(C)Cc1ccn2c(-c3ccnc(N)n3)c(-c3ccc(F)cc3)nc2n1 [Compound 20] | 81.3 |  |  | 4070 | 2.1 | 67 | 11.8 | 
CN(C)Cc1ccc2c(-c3ccnc(N)n3)c(-c3ccc(F)cc3)nn2c1 [Compound 29] | 4.07 |  |  | 513 | 2.5 | 22 | 18.5 | 

Second part, led by results:

IC50 (PfPKG) [nM] | LLE (PfPKG) | fold less biochemically active (PfPKG; compared to 2) [fold] | SMILES | EC50 (P. falciparum) [nM] | mLogD [1] | MLM % rem [2] [%] | PAMPA [3] [×10⁻⁶ cm/s] | solubility kinetic at 1.5 h, 200 µM (Kinetic solubility) [µM]
12 | 5.9 |  | CN(C)Cc1ccn2c(-c3ccncn3)c(-c3ccc(F)cc3)nc2c1 [Compound 7, reference compound] |  |  |  |  | 
77.6 | 4.2 | ~40 | CN(C)Cc1ccn2c(-c3ccncc3)c(-c3ccc(F)cc3)nc2c1 [Compound 8] |  |  |  |  | 
120 | 5.1 |  | CN(C)Cc1ccn2c(-c3cn[nH]c3)c(-c3ccc(F)cc3)nc2c1 [Compound 9] |  |  |  |  | 
52.5 | 5.3 |  | CN(C)Cc1ccn2c(-c3ccnc(N)c3)c(-c3ccc(F)cc3)nc2c1 [Compound 10] |  |  |  |  | 
257 |  |  | CN(C)Cc1ccn2c(-c3ccnc(Nc4ccc(N5CCNCC5)cc4)c3)c(-c3ccc(F)cc3)nc2c1 [Compound 11] |  |  |  |  | 
851 |  |  | CN(C)CCCNc1nccc(-c2c(-c3ccc(F)cc3)nc3ccccn23)n1 [Compound 14] |  | 1.8 | 62 | 8.2 | 
132 |  |  | Fc1ccc(-c2nc3ccccn3c2-c2ccnc(NC3CCOCC3)n2)cc1 [Compound 15] |  | 1.8 | 84 | 14.5 | 
30.9 |  |  | CN(C)Cc1ccc2c(c1)nc(-c1ccc(F)cc1)n2-c1ccnc(N)n1 [Compound 23] |  | 1.2 | 78 | 3.2 | 
407 |  |  | CN(C)CCNc1ccc2nc(-c3ccc(F)cc3)c(-c3ccnc(N)n3)n2n1 [Compound 26] |  | 1.6 | 68 | 1 | 
